Test results reported in PubChem BioAssay AID1322 (NMMLSC, 2008).
Activity calls are given as the source filed them. How the calls were made is not given here.

Molecular target: Bcl-2-like protein 1 (Homo sapiens) (UniProt Q07817)
Assay: Bcl-XL binding to Bim peptide disruption – biochemical, multiplexed, bead flow cytometry, human Bcl-XL, dose response (AID 1322); on inhibition: test concentration not given here
Settings: Bead-based flow cytometry, MCF; for inhibition: active compounds read high

Chain of Bcl-2-like protein 1 (Homo sapiens) (Q07817 whole entry, looked up): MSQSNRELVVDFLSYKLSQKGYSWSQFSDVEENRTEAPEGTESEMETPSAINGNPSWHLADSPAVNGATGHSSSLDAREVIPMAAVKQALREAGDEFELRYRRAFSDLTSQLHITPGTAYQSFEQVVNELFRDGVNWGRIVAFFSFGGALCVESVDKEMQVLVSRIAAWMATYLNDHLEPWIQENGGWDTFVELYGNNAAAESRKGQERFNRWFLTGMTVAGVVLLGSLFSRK

Row | SMILES | inhibition | outcome
1 | NNC(=O)COc1ccccc1F | inactive | –
2 | O=[N+]([O-])c1cccc(S(=O)(=O)NCC2CCCO2)c1 (stereo unspecified) | inactive | –
3 | COc1ccc(Cc2c(O)nc(SC)n(C(C)=O)c2=O)cc1 | inactive | –
4 | CCn1cc(C=C2C(=O)c3ccccc3C2=O)c2ccccc21 | inactive | –
5 | Cc1ccc(Nc2nc(C)cs2)cc1 | – | inactive
6 | O=C(/C=C/c1ccc(-c2ccccc2[N+](=O)[O-])o1)c1ccccc1 | inactive | –
7 | COc1ccc(C2=Nn3c(nnc3-c3ccccn3)SC2)cc1OC | inactive | –
8 | Cc1ccc(C(=O)NNC(=O)c2ccc3ncccc3c2)cc1 | – | inactive
9 | Cc1ccc(C)c(NC(=O)C(=O)NCc2ccccn2)c1 | – | inactive
10 | Cc1[nH]nc(SCC(=O)NCc2ccc(F)cc2)c1[N+](=O)[O-] | inactive | –
11 | O=C1c2ccccc2C(=O)N1c1cccc2cccnc12 | – | inactive
12 | OCCC1CN(Cc2nc3c(s2)CCCC3)CCN1Cc1ccsc1 (stereo unspecified) | inactive | –
13 | COC(=O)CSc1nccc(-c2cccs2)n1 | – | inactive
14 | O=C(c1cccc(Br)c1)N1CCN(c2cnn(-c3ccccc3)c(=O)c2Cl)CC1 | – | inactive
15 | Cc1ccc2c(c1)C1CN(C)CCC1N2C(=O)Nc1cccc(Cl)c1 (stereo unspecified) | inactive | –
16 | O=C1N/C(=C/c2cccn2-c2ccccc2)C(=O)N1Cc1ccc(F)cc1 | – | inactive
17 | C=CCn1c(SCC(=O)Nc2ccc3c(c2)OCO3)nnc1-c1cc(Br)ccc1O | inactive | –
18 | O=C(Nc1cccc(-c2ccc3nncn3n2)c1)c1ccco1 | inactive | –
19 | CCOC(=O)c1sc(N)c(C(=O)Nc2ccccc2OC)c1C | inactive | –
20 | CNC(=S)N(Cc1cccs1)Cc1cc2ccc(OC)cc2[nH]c1=O | inactive | –
21 | CC(C)COC(=O)/C(C#N)=C/c1cn(Cc2ccccc2)c2ccccc12 | inactive | –
22 | Cn1c(=O)c2cc(S(=O)(=O)Nc3cc(C(=O)O)cc(C(=O)O)c3)ccc2n(C)c1=O | – | inactive
23 | CCN(CC)c1ccc(-c2nn3c(-c4ccccc4OC)nnc3s2)cc1 | inactive | –
24 | Fc1ccc(C2=Nc3cccc4cccc(c34)N2)cc1 | – | inactive
25 | O=C(Nc1nccs1)c1ccc(COc2ccc(F)cc2)o1 | inactive | –
26 | CCN1CCN(c2ccc(NC(=O)c3cccc4ncccc34)cc2)CC1 | inactive | –

Row | SMILES | inhibition | outcome
27 | O=C(Nc1ccccc1)c1ccc2nc(-c3ccco3)c(-c3ccco3)nc2c1 | inactive | –
28 | c1ccc2c(N3CCOCC3)nc(N3CCOCC3)nc2c1 | inactive | –
29 | CN1C(=O)/C(=C/c2ccc(-c3ccccc3[N+](=O)[O-])o2)SC1=Nc1ccc(Cl)c(C(=O)O)c1 | inactive | –
30 | CCOc1cc(S(=O)(=O)Nc2ccccn2)ccc1F | inactive | –
31 | CCOc1cc(CNc2ccc(N3CCCCC3)cc2)cc(Br)c1OCC(=O)NC(C)(C)C | – | inactive
32 | COc1ccccc1C1=Nc2cccc3cccc(c23)N1 | inactive | –
33 | COc1ccc(NC(=O)c2sccc2SCc2cccc(C(F)(F)F)c2)cc1 | inactive | –
34 | C=CCn1c(C)cc(-c2csc(NC)n2)c1C | inactive | –
35 | CCOC(=O)C1(CC/C(C)=N\NC(N)=O)CC(C)(C)OC1=O (stereo unspecified) | inactive | –
36 | CCc1nn2cc(C(=O)c3cc(C)ccc3O)cnc2c1-c1ccc(F)cc1 | inactive | –
37 | COc1ccc(CC(=O)Nc2ccccc2Oc2ccccc2)cc1 | – | inactive
38 | Cc1cc(C)c2c(N)c3cccc(C)c3nc2n1 | inactive | –
39 | O=[N+]([O-])c1c(NCCO)cc(Sc2nc3ccccc3s2)c2nonc12 | inactive | –
40 | CCOCCOc1nc2c(c(=O)n(C)c(=O)n2C)n1CCc1ccccc1 | inactive | –
41 | Clc1ccc2c(N/N=C/c3ccc(Br)cc3)ccnc2c1 | – | inactive
42 | O=C(/C=C/c1ccc(-c2ccccc2)o1)c1ccccc1 | inactive | –
43 | COC(=O)CCC(=O)Nc1sc(Cc2ccccc2)c(C)c1C(N)=O | inactive | –
44 | NC(=O)c1c(N)sc2c1CCCCC2 | inactive | –
45 | COc1cc(N=c2ssnc2Cl)cc(OC)c1OC | inactive | –
46 | CCCc1nnc2n1N=C(c1ccc(-c3cc(Cl)ccc3Cl)o1)CS2 | inactive | –
47 | Cc1c(NC2=C(Cl)C(=O)N(c3ccccc3)C2=O)c(=O)n(-c2ccccc2)n1C | inactive | –
48 | Cc1ccc(N=C2NC(=O)/C(=C/C=C/c3ccco3)S2)cc1 | inactive | –
49 | O=C(CCc1ccccc1)N1CCN(c2ccccn2)CC1 | – | inactive
50 | Cn1c(=O)c(C(=O)COC(=O)c2cc(-c3ccco3)nc3ccccc23)c(N)n(CC2CC2)c1=O | inactive | –
51 | COc1ccc2nc(NC(=O)c3ccc(-c4cccc([N+](=O)[O-])c4)o3)sc2c1 | inactive | –
52 | O=C(C1=NN[C@@H]2C(=O)N(c3cccc(F)c3)C(=O)[C@H]12)c1ccc2ccccc2n1 | – | inactive

Row | SMILES | inhibition | outcome
53 | Cc1csc(Nc2ccccc2C(F)(F)F)n1 | inactive | –
54 | COc1ccc(NC(=O)c2ccc3c(c2)NC(=O)CS3)cc1S(=O)(=O)Nc1ccc(Br)cc1 | inactive | –
55 | Cn1c(N)c(C(=O)COC(=O)c2cncc(Br)c2)c(=O)n(C)c1=O | – | inactive
56 | O=C(N/N=C/c1cccnc1)c1cccc(S(=O)(=O)N2CCCC2)c1 | – | inactive
57 | CC1=NN(c2ccc(C)cc2)C(=O)/C1=C\c1ccc(Br)s1 | inactive | –
58 | CCOC(=O)c1cc2c(=O)n3cccc(C)c3nc2n(Cc2ccco2)c1=NC(=O)c1ccccc1 | inactive | –
59 | CCOc1ccc(N2C(=O)C(Cl)=C(Nc3ccccc3O)C2=O)cc1 | inactive | –
60 | COc1ccc(OC)c2sc(NC(=O)c3ccc(Br)s3)nc12 | inactive | –
61 | Cc1nc2cc(F)ccc2n1C1CCN(C(=O)c2c(F)cccc2F)CC1 | inactive | –
62 | CC(NCc1ccc(-c2ccccc2)cc1)C(O)c1ccccc1 (stereo unspecified) | – | inactive
63 | COc1ccccc1N(C)S(=O)(=O)c1ccc(C(=O)OCC(N)=O)cc1 | – | inactive
64 | CCOC(=O)C1=C(Cc2ccc(OC)cc2)C(=O)c2ccccc2C1=O | inactive | –
65 | COc1cc(/C=C2/NC(=O)N(Cc3ccccc3F)C2=O)ccc1O | – | inactive
66 | CCC(=O)OCCNc1cc(Sc2nc3ccccc3[nH]2)c2nonc2c1[N+](=O)[O-] | inactive | –
67 | Cc1ccc(NS(=O)(=O)c2cc(NC(=O)c3ccc4c(c3)NC(=O)CS4)ccc2C)c(C)c1 | inactive | –
68 | COc1ccc(C(=O)/C=C/c2cc(OC)c(O)c(OC)c2)c(F)c1 | inactive | –
69 | CCN(CC)c1nc(N)nc(N(c2ccccc2)c2ccccc2)n1 | inactive | –
70 | CCn1c(C)nc2cc(C(=O)N/N=C/c3ccc(O)c(O)c3O)ccc21 | inactive | –
71 | COc1ccc(/C=C/C(=O)c2cc(Br)ccc(=O)c2O)cc1 | – | inactive
72 | COc1cc(CNc2ccc3[nH]c(=O)[nH]c3c2)cc(Br)c1OCC(=O)NC(C)(C)C | inactive | –
73 | O=C(Nc1ccccc1)Nc1ccc2ncoc2c1 | inactive | –
74 | O=C(Nc1nnc(COc2ccc(Cl)cc2)s1)c1ccco1 | inactive | –
75 | COc1ccc(NS(=O)(=O)c2cc(NC(=O)c3ccc(C)o3)ccc2N2CCCCC2)cc1 | inactive | –
76 | Cc1cc(-c2nnc(CCC(=O)NC(C)c3cccc4ccccc34)o2)no1 (stereo unspecified) | – | inactive
